Patent US20240101576A1, “HETEROCYCLIC INHIBITORS OF EGFR AND/OR HER2, FOR USE IN THE TREATMENT OF CANCER” (Scorpion Therapeutics, Inc., priority 2020, published 2024)

Tests used:
Assay type in all cases: cell-based
EGFR L858R (Ba/F3 cells) [1] = molecular target: T1, EGFR L858R (Ba/F3 cells) (Homo sapiens, UniProt P00533, L858R); assay: Inhibitor activity on EGFR phosphorylation (pEGFR AlphaLISA, 2 h), Ba/F3 EGFR L858R
T1 construct: expressed in transfected cells; host or cells: Ba/F3 (murine pro-B cells), retroviral transduction, puromycin selection, IL3-independent pool
Description: (§1) Example B. Inhibitor Activity on EGFR phosphorylation (pEGFR)
(§2) EGFR mutant Ba/F3 cells were generated by transduction with retrovirus containing vectors expressing EGFR L858R, EGFR exon 19del, EGFR L858R/C797S, EGFR exon 20 NPG Ins D770_N771, EGFR exon 20 ASV Ins V769_D770, or EGFR exon 20 SVD Ins D770_N771 genes along with a puromycin selection marker. Transduced cells are selected with puromycin for 7 days and are then be transferred into culture media without Interleukin 3 (IL3). Surviving cells are confirmed to express EGFR by Western blot and maintained as a pool. CUTO14 cells were obtained from Dr. Robert C. Doebele at the University of Colorado. The IC50 date are included in Table 6 and Table 7.
(§3) 1.1 Cells are harvested from flask into cell culture medium and the cell number counted.
(§4) 1.2 Cells are diluted with culture medium to the desired density and 40 μL of cell suspension is added into each well of 384-well cell culture plate and the seeding density is 50K cells/well (Ba/F3) or 12.5K cells/well (CUTO14).
(§5) 2 Compound Preparation and Treatment
(§6) 2.1 Test compounds are dissolved to 10 mM in a DMSO stock solution. 45 μL of stock solution is transferred to a 384 polypropylene plate (pp-plate). Perform 3-fold, 10-point dilution via transferring 15 μL compound into 30 μL DMSO using a TECAN (EVO200) liquid handler.
(§7) 2.2 Spin plates at room temperature at 1,000 RPM for 1 minute.
(§8) 2.3 Transfer 5 nL of diluted compound from compound source plate into the cell plate.
(§9) 2.4 After compound treatment for 2 hours, perform pEGFR detection by AlphaLISA for compound treatment plates as described in “Detection” section.
(§10) 3 Detection by pEGFR AlphaLISA (Perkin-Elmer)
(§11) 3.1 Plates are removed from incubators and equilibrated at room temperature for 10 minutes, and media was removed
(§12) 3.2 10 μL of lysis buffer is added and plates shaken at 600 rpm for 1 hr.
(§13) 3.3 Prepare acceptor mix just before use and dispense 5 μL of acceptor mix to all the wells. Shake 350 rpm for Ihr in the dark
(§14) 3.4 Prepare donor mix under low light conditions prior to use. Dispense 5 μL of donor mix to all the wells. Mix well on the shaker, seal and wrap in aluminum foil and incubate 1.5 hrs at room temperature in the dark
(§15) 3.5 Transfer 18.5 μL mixture to OptiPlate 384, and read using an Envision. The IC50 date were included in Table 6 and Table 7.

[2] = molecular target: T2, EGFR L858R/C797S (Ba/F3 cells) (Homo sapiens, UniProt P00533, C797S/L858R); assay: Inhibitor activity on EGFR phosphorylation (pEGFR AlphaLISA, 2 h), Ba/F3 EGFR L858R/C797S
T2 construct: expressed in transfected cells; host or cells: Ba/F3 (murine pro-B cells), retroviral transduction, puromycin selection, IL3-independent pool
Description: as §1, §2, §3, §4, §5, §6, §7, §8, §9, §10, §11, §12, §13, §14, §15

EGFR L858R (Ba/F3 cells) [3] = molecular target: T1, EGFR L858R (Ba/F3 cells); assay: Inhibitor activity on EGFR-dependent cell growth (CellTiter-Glo, 72 h), Ba/F3 EGFR L858R; conditions: read-out: BaF3 L858R IC50
Procedure, shortened: (§16)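 72 h proliferation, Ba/F3 EGFR mutants (no IL3, puromycin-selected pools, EGFR confirmed by Western blot). Seeding of 400 L858R, 600 L858R/C797S and 800 exon 19del/FQEA cells per well. CellTiter-Glo used; controls were […] (high) and medium alone (low).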

[4] = molecular target: T3, EGFR exon 20 ASV Ins V769_D770 (Ba/F3 cells) (Homo sapiens, UniProt P00533, INS769ASV); assay: Inhibitor activity on EGFR-dependent cell growth (CellTiter-Glo, 72 h), Ba/F3 EGFR exon 20 ASV Ins; conditions: read-out: BaF3 ASV IC50
T3 construct: expressed in transfected cells; host or cells: Ba/F3 (murine pro-B cells), retroviral transduction, puromycin selection, IL3-independent pool
Procedure, shortened: (§17)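 IC50s derive from a sigmoidal dose–response fit of CellTiter-Glo signal. The signal was normalised between […]-treated cells and cell-free medium. Ba/F3 mutant-EGFR cells, seeded at 400–800/well depending on the line, had 72 h of exposure to a 10-point, 3-fold compound series.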

[5] = molecular target: T4, EGFR exon 19del (Ba/F3 cells) (Homo sapiens, UniProt P00533); assay: Inhibitor activity on EGFR phosphorylation (pEGFR AlphaLISA, 2 h), Ba/F3 EGFR exon 19del; conditions: read-out: Del19 IC50 (pEGFR)
Description: as §1, §2, §3, §4, §5, §6, §7, §8, §9, §10, §11, §12, §13, §14, §15

[6] = molecular target: T5, EGFR exon 20 NPG Ins D770_N771 (Ba/F3 cells) (Homo sapiens, UniProt P00533, INS770NPG); assay: Inhibitor activity on EGFR-dependent cell growth (CellTiter-Glo, 72 h), Ba/F3 EGFR exon 20 NPG Ins; conditions: read-out: BaF3 NPG IC50
T5 construct: expressed in transfected cells; host or cells: Ba/F3 (murine pro-B cells), retroviral transduction, puromycin selection, IL3-independent pool
Procedure, shortened: as §17

[7] = molecular target: T2, EGFR L858R/C797S (Ba/F3 cells); assay: Inhibitor activity on EGFR-dependent cell growth (CellTiter-Glo, 72 h), Ba/F3 EGFR L858R/C797S; conditions: read-out: BaF3 L858R/C797S IC50
Description: Example A. Inhibitor Activity on EGFR-Dependent Cell Growth
Cell lines are generated by transducing Ba/F3 cells with retroviruses containing vectors with EGFR WT, EGFR L858R, EGFR exon 19del, EGFR L858R/C797S, EGFR exon 20 NPG Ins D770_N771, EGFR exon 20 ASV Ins V769_D770, EGFR exon 20 SVD Ins D770_N771, or EGFR exon 20 FQEA Ins A763_V764 genes and a puromycin selection marker. Transduced cells are selected with puromycin for 7 days and are then be transferred into culture media without Interleukin 3 (IL3). EGFR WT cells are maintained with supplemental EGF. Surviving cells are confirmed to express EGFR by Western blot and maintained as a pool. The IC50 date were included in Table 6 and Table 7.
as §3
1.2 Cells are diluted with culture medium to the desired density and 40 μL of cell suspension is added into each well of 384-well cell culture plate and the seeding density is 800 (FQEA, exon 19del), 600 (WT, NPG, L858R/C797S), or 400 (ASV, SVD, L858R) cells/well.
as §5, §6, §7
2.3 Transfer 120 nL of diluted compound from compound source plate into the cell plate.
2.4 After compound treatment for 72 hours, perform CTG detection for compound treatment plates as described in “Detection” section.
3.1 Plates are removed from incubators and equilibrated at room temperature for 15 minutes.
3.2 Thaw the CellTiter Glo reagents and allow to equilibrate to room temperature before the experiment.
3.3 Add 40 μL of CellTiter-Glo reagent into each well (at 1:1 to culture medium). Then place the plates at room temperature for 30 min followed by reading on EnVision.
4.1 Inhibition activity is calculated following the formula below:
% Inhibition=100×(LumHC−LumSample)/(LumHC−LumLC) • where HC is obtained from cells treated with 0.1% DMSO only; and LC is obtained from culture medium only.
4.2 2. Calculate the IC50 by fitting the Curve using Xlfit (v5.3.1.3), equation 201.
Y=Bottom+(Top−Bottom)/(1+10^((Log IC50−X)*HillSlope))

[8] = molecular target: T4, EGFR exon 19del (Ba/F3 cells); assay: Inhibitor activity on EGFR-dependent cell growth (CellTiter-Glo, 72 h), Ba/F3 EGFR exon 19del; conditions: Ba/F3 EGFR exon 19del cell growth, read-out: BaF3 Del19 IC50
Procedure, shortened: as §16

EGFR WT (Ba/F3 cells) = molecular target: T6, EGFR WT (Ba/F3 cells) (Homo sapiens, UniProt P00533); assay: Inhibitor activity on EGFR-dependent cell growth (CellTiter-Glo, 72 h), Ba/F3 EGFR WT; conditions: read-out: BaF3 WT IC50
T6 construct: expressed in transfected cells; host or cells: Ba/F3 (murine pro-B cells), retroviral transduction, puromycin selection, maintained with EGF
Procedure, shortened: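 This growth assay used Ba/F3 cells that depend on wild-type EGFR and are kept in EGF without IL3. Compounds were made up as 10 mM DMSO stocks and diluted 3-fold over 10 points. 120 nL went onto 600 cells/well. After 72 hours, 40 μL CellTiter-Glo was added and luminescence read on EnVision after 30 min.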

[9] = molecular target: T7, EGFR exon 20 SVD Ins D770_N771 (Ba/F3 cells) (Homo sapiens, UniProt P00533, INS770SVD); assay: Inhibitor activity on EGFR-dependent cell growth (CellTiter-Glo, 72 h), Ba/F3 EGFR exon 20 SVD Ins; conditions: read-out: BaF3 SVD IC50
T7 construct: expressed in transfected cells; host or cells: Ba/F3 (murine pro-B cells), retroviral transduction, puromycin selection, IL3-independent pool
Procedure, shortened: as §17

[10] = molecular target: T8, EGFR exon 20 FQEA Ins A763_V764 (Ba/F3 cells) (Homo sapiens, UniProt P00533, INS763FQEA); assay: Inhibitor activity on EGFR-dependent cell growth (CellTiter-Glo, 72 h), Ba/F3 EGFR exon 20 FQEA Ins; conditions: read-out: BaF3 FQEA IC50
T8 construct: expressed in transfected cells; host or cells: Ba/F3 (murine pro-B cells), retroviral transduction, puromycin selection, IL3-independent pool
Procedure, shortened: as §16

T3 sequence (P00533 with tags, fused parts or gaps INS769ASV): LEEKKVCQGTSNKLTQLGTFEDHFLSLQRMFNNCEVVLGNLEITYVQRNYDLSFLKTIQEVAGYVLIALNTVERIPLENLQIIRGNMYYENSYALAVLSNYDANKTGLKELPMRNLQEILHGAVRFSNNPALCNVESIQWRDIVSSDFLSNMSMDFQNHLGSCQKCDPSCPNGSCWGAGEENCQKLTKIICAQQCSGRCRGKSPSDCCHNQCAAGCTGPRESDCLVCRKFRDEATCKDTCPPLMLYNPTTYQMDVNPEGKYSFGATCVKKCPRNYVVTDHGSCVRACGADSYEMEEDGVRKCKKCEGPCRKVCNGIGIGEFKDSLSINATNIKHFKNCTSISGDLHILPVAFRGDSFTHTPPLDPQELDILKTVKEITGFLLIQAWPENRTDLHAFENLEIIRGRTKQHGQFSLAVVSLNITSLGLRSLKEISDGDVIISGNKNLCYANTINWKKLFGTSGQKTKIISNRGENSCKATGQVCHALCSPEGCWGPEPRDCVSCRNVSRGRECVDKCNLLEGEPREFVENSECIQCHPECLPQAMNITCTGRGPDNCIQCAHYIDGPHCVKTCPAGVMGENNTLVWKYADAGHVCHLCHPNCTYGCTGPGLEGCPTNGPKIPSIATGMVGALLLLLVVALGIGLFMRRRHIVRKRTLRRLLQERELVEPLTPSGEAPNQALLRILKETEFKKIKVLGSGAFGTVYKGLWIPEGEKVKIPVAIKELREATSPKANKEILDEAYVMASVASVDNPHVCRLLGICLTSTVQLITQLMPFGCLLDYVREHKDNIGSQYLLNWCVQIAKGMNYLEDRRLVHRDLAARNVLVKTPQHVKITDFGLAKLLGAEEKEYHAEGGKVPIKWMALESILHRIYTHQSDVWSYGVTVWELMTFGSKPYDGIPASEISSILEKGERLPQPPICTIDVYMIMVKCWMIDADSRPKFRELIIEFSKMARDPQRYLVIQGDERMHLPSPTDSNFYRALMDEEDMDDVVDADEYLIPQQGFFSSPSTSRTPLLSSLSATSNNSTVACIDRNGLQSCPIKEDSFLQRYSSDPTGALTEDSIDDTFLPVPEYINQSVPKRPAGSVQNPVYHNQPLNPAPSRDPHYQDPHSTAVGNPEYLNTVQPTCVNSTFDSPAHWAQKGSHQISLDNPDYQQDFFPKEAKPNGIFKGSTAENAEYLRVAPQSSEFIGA
T6 sequence (P00533 25-1210): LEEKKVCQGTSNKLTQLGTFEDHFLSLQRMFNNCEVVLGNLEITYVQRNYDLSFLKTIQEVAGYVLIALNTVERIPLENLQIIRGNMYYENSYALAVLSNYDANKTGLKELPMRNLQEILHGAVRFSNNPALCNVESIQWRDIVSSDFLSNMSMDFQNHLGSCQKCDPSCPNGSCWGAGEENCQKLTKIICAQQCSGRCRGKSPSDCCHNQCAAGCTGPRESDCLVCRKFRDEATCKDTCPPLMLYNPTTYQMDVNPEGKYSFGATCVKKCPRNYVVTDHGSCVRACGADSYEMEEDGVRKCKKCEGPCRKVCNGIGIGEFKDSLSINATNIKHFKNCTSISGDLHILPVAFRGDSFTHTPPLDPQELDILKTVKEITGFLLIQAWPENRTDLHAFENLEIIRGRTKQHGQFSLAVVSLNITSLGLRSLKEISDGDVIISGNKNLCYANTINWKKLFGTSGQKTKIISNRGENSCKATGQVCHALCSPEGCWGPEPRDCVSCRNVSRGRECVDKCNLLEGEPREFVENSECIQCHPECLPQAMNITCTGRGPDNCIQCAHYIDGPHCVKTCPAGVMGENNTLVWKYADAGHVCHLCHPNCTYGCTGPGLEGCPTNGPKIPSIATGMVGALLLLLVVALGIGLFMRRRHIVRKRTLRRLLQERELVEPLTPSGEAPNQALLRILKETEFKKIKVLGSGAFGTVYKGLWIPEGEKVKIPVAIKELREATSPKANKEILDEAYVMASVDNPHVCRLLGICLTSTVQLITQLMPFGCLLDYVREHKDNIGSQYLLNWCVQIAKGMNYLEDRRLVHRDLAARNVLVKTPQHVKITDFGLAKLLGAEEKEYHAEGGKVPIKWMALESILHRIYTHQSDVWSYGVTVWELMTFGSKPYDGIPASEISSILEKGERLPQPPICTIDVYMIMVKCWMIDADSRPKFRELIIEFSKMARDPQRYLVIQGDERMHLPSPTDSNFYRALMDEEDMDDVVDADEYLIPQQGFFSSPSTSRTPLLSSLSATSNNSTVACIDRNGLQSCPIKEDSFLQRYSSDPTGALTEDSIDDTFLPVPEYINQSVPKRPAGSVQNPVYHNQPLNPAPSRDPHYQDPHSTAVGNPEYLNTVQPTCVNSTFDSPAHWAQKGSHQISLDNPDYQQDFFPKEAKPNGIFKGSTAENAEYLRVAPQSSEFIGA
T2 sequence (P00533 25-1210 C797S/L858R): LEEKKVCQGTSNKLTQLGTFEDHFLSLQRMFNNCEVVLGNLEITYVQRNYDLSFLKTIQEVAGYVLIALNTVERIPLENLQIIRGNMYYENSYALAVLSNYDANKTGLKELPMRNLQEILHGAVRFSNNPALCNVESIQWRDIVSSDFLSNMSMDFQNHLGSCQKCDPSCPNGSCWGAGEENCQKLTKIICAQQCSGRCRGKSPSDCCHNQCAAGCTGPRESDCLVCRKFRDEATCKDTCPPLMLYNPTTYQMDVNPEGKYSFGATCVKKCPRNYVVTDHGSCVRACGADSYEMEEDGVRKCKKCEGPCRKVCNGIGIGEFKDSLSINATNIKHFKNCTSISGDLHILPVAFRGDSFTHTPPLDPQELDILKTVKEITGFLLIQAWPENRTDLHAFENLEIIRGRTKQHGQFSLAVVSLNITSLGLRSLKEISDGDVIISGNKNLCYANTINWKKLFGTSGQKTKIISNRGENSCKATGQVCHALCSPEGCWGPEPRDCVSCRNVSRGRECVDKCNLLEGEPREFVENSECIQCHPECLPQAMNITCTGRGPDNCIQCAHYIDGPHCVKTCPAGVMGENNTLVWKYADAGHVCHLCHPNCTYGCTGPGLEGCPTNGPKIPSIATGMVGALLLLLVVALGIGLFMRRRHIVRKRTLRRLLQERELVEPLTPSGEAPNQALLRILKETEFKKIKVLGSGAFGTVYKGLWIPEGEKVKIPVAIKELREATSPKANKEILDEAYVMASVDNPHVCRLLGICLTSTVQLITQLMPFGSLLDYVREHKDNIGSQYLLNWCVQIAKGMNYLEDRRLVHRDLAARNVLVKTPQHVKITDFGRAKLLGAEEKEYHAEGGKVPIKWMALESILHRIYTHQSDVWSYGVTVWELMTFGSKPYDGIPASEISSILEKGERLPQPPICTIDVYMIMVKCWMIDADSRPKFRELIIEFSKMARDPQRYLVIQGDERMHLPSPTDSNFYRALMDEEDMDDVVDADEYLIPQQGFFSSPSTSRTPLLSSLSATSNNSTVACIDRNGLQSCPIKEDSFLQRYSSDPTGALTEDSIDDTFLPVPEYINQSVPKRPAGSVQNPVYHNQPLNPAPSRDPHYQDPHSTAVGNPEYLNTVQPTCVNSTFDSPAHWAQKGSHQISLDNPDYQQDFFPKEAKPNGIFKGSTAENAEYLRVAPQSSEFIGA
T1 sequence (P00533 25-1210 L858R): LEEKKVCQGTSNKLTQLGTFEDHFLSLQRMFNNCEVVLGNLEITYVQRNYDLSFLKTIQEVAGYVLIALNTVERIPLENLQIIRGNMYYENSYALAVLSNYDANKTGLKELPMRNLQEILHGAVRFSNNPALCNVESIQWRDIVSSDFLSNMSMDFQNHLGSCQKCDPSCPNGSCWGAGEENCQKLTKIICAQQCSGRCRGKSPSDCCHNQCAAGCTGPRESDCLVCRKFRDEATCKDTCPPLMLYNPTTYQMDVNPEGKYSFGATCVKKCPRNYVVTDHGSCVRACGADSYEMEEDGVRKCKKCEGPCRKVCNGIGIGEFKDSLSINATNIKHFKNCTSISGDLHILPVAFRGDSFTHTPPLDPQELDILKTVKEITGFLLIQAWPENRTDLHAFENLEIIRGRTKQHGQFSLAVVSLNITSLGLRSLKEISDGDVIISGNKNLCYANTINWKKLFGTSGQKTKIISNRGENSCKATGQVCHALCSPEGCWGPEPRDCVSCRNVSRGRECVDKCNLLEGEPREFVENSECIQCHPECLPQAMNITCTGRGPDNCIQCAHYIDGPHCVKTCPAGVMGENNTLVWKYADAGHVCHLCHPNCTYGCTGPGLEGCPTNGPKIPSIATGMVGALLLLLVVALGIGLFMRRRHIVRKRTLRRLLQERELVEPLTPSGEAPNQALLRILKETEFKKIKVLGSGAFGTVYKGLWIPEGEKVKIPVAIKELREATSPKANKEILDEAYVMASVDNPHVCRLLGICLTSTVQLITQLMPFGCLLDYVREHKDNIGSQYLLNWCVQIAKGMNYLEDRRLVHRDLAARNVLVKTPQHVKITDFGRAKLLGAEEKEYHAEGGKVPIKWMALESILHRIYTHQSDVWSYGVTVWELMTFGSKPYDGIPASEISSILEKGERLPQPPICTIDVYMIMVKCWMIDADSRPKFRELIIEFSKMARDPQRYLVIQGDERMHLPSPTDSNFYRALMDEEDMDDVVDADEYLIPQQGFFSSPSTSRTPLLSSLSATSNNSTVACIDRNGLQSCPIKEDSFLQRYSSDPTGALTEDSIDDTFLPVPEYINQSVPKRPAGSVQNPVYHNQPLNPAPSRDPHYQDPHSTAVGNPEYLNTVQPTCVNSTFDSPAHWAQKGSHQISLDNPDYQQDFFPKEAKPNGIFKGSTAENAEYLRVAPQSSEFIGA

Row | SMILES | IC50 (EGFR L858R (Ba/F3 cells) [1]) [nM] | IC50 [2] [nM] | IC50 (EGFR L858R (Ba/F3 cells) [3]) [nM] | IC50 [4] [nM] | IC50 [5] [nM] | IC50 [6] [nM] | IC50 [7] [nM] | IC50 [8] [nM] | IC50 (EGFR WT (Ba/F3 cells)) [nM] | IC50 [9] [nM] | IC50 [10] [nM]
1 | COc1c(F)cccc1Nc1c(-c2ccncn2)[nH]c2c1C(=O)NCC2C[C@H]1COCCO1 (single isomer, unassigned) [Compound 530, (7R*)-7-[(2S)-1,4-dioxan-2-ylmethyl]-3-[(3-fluoro-2-methoxyphenyl)amino]-2-(pyrimidin-4-yl)-1H,5H,6H,7H-pyrrolo[3,2-c]pyridin-4-one] | < 100 | < 100 | < 100 | < 100 | < 100 | < 100 | < 100 | < 100 | 100 to 1000 | < 100 | 
2 | COc1c(F)cccc1Nc1c(-c2ccncn2)[nH]c2c1C(=O)NCC2C[C@H]1COCCO1 (single isomer, unassigned) [Compound 572, (7R*)-7-[(2S)-1,4-dioxan-2-ylmethyl]-3-[(3-fluoro-2-methoxyphenyl)amino]-2-(pyrimidin-4-yl)-1H,5H,6H,7H-pyrrolo[3,2-c]pyridin-4-one] | < 100 | < 100 | < 100 | 100 to 1000 | < 100 | 100 to 1000 | < 100 | < 100 | > 1000 | < 100 | 
3 | COc1c(Cl)cccc1Nc1c(-c2ccncc2F)[nH]c2c1C(=O)NC[C@H]2CC1COCCO1 (stereo in doubt) [Compound 480, (7R)-3-[(3-chloro-2-methoxyphenyl)amino]-7-[(2R)-1,4-dioxan-2-ylmethyl]-2-(3-fluoropyridin-4-yl)-1H,5H,6H,7H-pyrrolo[3,2-c]pyridin-4-one] | < 100 | < 100 | < 100 |  | < 100 | < 100 | < 100 | < 100 | 100 to 1000 |  | < 100
4 | COc1c(F)cccc1Nc1c(-c2ccncc2F)[nH]c2c1C(=O)NC[C@H]2CC1COCCO1 (stereo in doubt) [Compound 575, (7R)-7-[(2R)-1,4-dioxan-2-ylmethyl]-3-[(3-fluoro-2-methoxyphenyl)amino]-2-(3-fluoropyridin-4-yl)-1H,5H,6H,7H-pyrrolo[3,2-c]pyridin-4-one] | < 100 | < 100 | < 100 | < 100 | < 100 | < 100 | < 100 | < 100 | 100 to 1000 | < 100 | 
5 | COc1c(Cl)cccc1Nc1c(-c2ccncc2F)[nH]c2c1C(=O)NCC21CN(CC(F)F)C1 [Compound 519, 3′-[(3-chloro-2-methoxyphenyl)amino]-1-(2,2-difluoroethyl)-2′-(3-fluoropyridin-4-yl)-5′,6′-dihydro-1′H-spiro[azetidine-3,7′-pyrrolo[3,2-c]pyridin]-4′-one] | < 100 | < 100 | < 100 | 100 to 1000 | < 100 | 100 to 1000 | < 100 | < 100 | > 1000 | 100 to 1000 | 
6 | COc1c(Cl)cccc1Nc1c(-c2ccnc3ccc(OC4(C)COC4)nc23)[nH]c2c1C(=O)NCC2 [Compound 787, 3-[(3-chloro-2-methoxyphenyl)amino]-2-[6-[(3-methyloxetan-3-yl)oxy]-1,5-naphthyridin-4-yl]-1H,5H,6H,7H-pyrrolo[3,2-c] pyridin-4-one] | < 100 | < 100 | < 100 | < 100 | < 100 | < 100 | < 100 | < 100 | < 100 | < 100 | < 100
7 | COc1c(F)cccc1Nc1c(-c2ccnc3ccc(OC4(C)COC4)nc23)[nH]c2c1C(=O)NCC2 [Compound 788, 3-[(3-fluoro-2-methoxyphenyl)amino]-2-[6-[(3-methyloxetan-3-yl)oxy]-1,5-naphthyridin-4-yl]-1H,5H,6H,7H-pyrrolo[3,2-c]pyridin-4-one] | < 100 | < 100 | < 100 | < 100 | < 100 | < 100 | < 100 | < 100 | < 100 | < 100 | < 100
8 | COc1c(Cl)cccc1Nc1c(-c2ccnc3ccc(C)nc23)[nH]c2c1C(=O)NCC2 [compound 749, 3-[(3-chloro-2-methoxyphenyl)amino]-2-(6-methyl-1,5-naphthyridin-4-yl)-1H,5H,6H,7H-pyrrolo[3,2-c]pyridin-4-one] | < 100 | < 100 | < 100 | < 100 | < 100 | < 100 | < 100 | < 100 | 100 to 1000 | < 100 | < 100
